The source of these data is patent publication US20130323217A1, “COMPOSITIONS AND METHODS FOR THE CONTROLLED REPOPULATION OF GRAM-NEGATIVE BACTERIA IN THE COLON” (Da Volterra, priority 2010, published 2013).

What all share (assay type): in vivo, piglets
The test system of data set [1] is colistin-resistant Enterobacteriaceae. Put plainly: Piglet model: faecal counts of colistin-resistant Enterobacteriaceae. The note with it: during follow-up (14 days). As to the method:
(§1) The model was used according to the synopsis depicted in FIG. 1.
(§2) Colistin sulfate (Colivet), a non absorbable antibiotic, used in human decontamination, was given once per day orally in this experiment. Two regimens were tested: 7.5 mg/kg/d and 15 mg/kg/d, equivalent to human doses 500 mg/d and 1000 mg/d, respectively. The duration of the treatment was 3 days. The objective of such very high doses, given over a short period of time, was to obtain a rapid eradication of ESBL-producing Enterobacteriaceae without the emergence of strains resistant to colistin. • E. coli Nissle strain 1917 (EcN1917, Mutaflor). The dose was calculated to administrate the highest dose recommended in humans: 2 enteric-coated capsules of 2.5-25×10^9 viable bacteria, given orally, once daily during 6 days.
(§3) Fresh faecal samples were collected from each piglet, diluted ten-fold (w/v) in peptone broth containing 30% glycerol, and faecal suspension aliquots were stored at −80° C. until microbiological analysis.
(§4) Before analysis, frozen aliquots were thawed by standing approximately 1 hr at room temperature and faecal suspensions were serially diluted in saline before plating on appropriate agar plates.
Cefotaxime- and colistin-resistant Enterobacteriaceae were counted using Drigalski agar supplemented with 1.5 mg/L cefotaxime and 10 mg/L colistin base respectively. […]

Data set [2] in a line: Microbiological assay of faecal concentrations of colistin. To be noted: 15 mg/kg/d colistin sulfate. As to the method:
Fecal concentrations of colistin were measured by a microbiological assay using agar medium 10 (Difco, Becton-Dickinson, Le Pont-de-Claix) and Bordetella bronchiseptica ATCC4617 as indicator strain. The limit of detection was 1.5 μg of colistin base per g of feces.
as §3

Data set [3] deals with ESBL-producing Enterobacteriaceae. Briefly: Piglet model: faecal counts of cefotaxime-resistant (ESBL-producing) Enterobacteriaceae after colistin decontamination and E. coli Nissle 1917 repopulation. As to the method:
as §1
In summary, piglets were treated sequentially with: • cefdinir (4 mg/kg/d) during 2 days, in order to enhance the carriage of ESBL-producing bacteria, • colistin sulfate (destroy phase):
as §2, §3, §4
Total Enterobacteriaceae were counted using Drigalski agar (BioRad Laboratories, Marnes-La-Coquette, France) plates.
Cefotaxime- and colistin-resistant Enterobacteriaceae were counted using Drigalski agar supplemented with 1.5 mg/L cefotaxime and 10 mg/L colistin base respectively.
Bacterial counts which were below the detection threshold (2 log CFU/g of faeces) were considered to be equal to the 2 log CFU/g for statistical analysis.

For the substance colistin sulfate, the “selection of strains resistant to colistin” value in data set [1] was “no selection of strains resistant to colistin was observed”. The “faecal concentrations relative to the MIC” value in data set [2] is “at least 10 fold”. Besides, the “efficacy to eradicate ESBL-producing enterobacteria (destroy phase)” value in data set [3] (15 mg/kg/d compared with 7.5 mg/kg/d, orally once per day, 3 days) is “best efficacy”. Further, the “decolonization of ESBL-producing enterobacteria” value in data set [3] (colistin for three days followed by six days of E. coli strain Nissle 1917) is “rapid and efficacious decolonization”. Further, the “efficacy in the restore phase” value in data set [3] (group which had received the high dose of colistin) is reported as “best efficacy”.
